In patent publication US20150050220A1, “ANTIMICROBIAL COMPOSITION” (Rohm and Haas Company, priority 2011, published 2015):

What was measured:
Assay type in all cases: cell-based
[1] = test system: Escherichia coli (E. coli - ATCC #10536); experiment: High resolution MBC microtiter plate synergy assay in phosphate buffer containing 35% dipropylene glycol (Example 2); conditions: for MBC of component alone (MBCA, MBCB): complete kill in 15 seconds, phosphate buffer with 35% DPG, E. coli 10536; for ΣFBC: component alone
Experimental: The materials were sourced in the same way as for Example 1. Synergy tests were conducted using standard microtiter plate assays with phosphate buffer containing 35% dipropylene glycol (DPG). […] The MBC plate was inoculated one column at a time with the test microorganism. An aliquot of the inoculated well was transferred at 15 seconds to a plate containing a neutralizing agent (D/E Neutralizing Broth), mixed and held for 5 minutes before being transferred to a growth plate containing trypticase soy broth (TSB). The TSB plate was incubated at 37° C. and read for the presence/absence of growth at 24 hours. […] This microorganism is representative of natural contaminants in many consumer and industrial applications.

[2] = test system: Escherichia coli (10536 strain); experiment: Assessment of antimicrobial efficacy and synergy: 15 seconds contact suspension kill test (Example 1); conditions: for MBC (minimum biocidal concentration): lowest concentration giving complete kill of E. coli, 15 seconds contact, component alone
[3] = test system: Escherichia coli (E. coli - ATCC #10536); experiment: Automated assessment of efficacy in surfactant base, OD readout after 15 seconds exposure (Example 3)
Experimental: In these examples, the efficacy of combinations of thymol and p-menthene alcohols were tested in a surfactant cleansing formulation comprising 2.85% sodium cocoyl glycinate and 1.85% sodium lauroamphoacetate. This corresponds to a 50% in use dilution with water of a typical neat formulation containing 5.7% cocoyl glycinate and 3.7% % sodium lauroamphoacetate during hand washing. Solutions were prepared such that the concentrations of the surfactant components and test actives were 1.1 times the final desired concentration in order to allow for dilution with the bacterial inoculum in the test. The solutions were manually adjusted to pH 10.0 by dropwise addition of sodium hydroxide solution, as measured with a pH meter at ambient temperature. […]
The efficacy of the combinations of the present invention was determined against the same bacterium as in Example 1, Escherichia coli (E. coli—ATCC #10536), at a concentration of approximately 1×10^8 bacteria per mL.
Tests were conducted using standard microtiter plate assays using an automated liquid handling system. […] After 5 minutes in the DIE quench, the optical density (OD) was measured for each plate in turn at two specific wavelengths (450 nm and 590 nm). […] Delta OD values were calculated by subtracting […] at time=16 hours. […]

SMILES | MBC of component alone (MBCA, MBCB) [1] [weight %] | ΣFBC [1] | Cb (end-point of second component in the mixture) ([1]; with Ca 0.08 of thymol, ratio A to B 1 to 2.5) [weight %] | Cb (end-point of second component in the mixture) ([1]; with Ca 0.2 of thymol, ratio A to B 1 to 0.13) [weight %] | Cb (end-point of second component in the mixture) ([1]; with Ca 0.2 of thymol, ratio A to B 1 to 0.25) [weight %] | Cb (end-point of second component in the mixture) ([1]; with Ca 0.2 of thymol, ratio A to B 1 to 0.38) [weight %] | Cb (end-point of second component in the mixture) ([1]; with Ca 0.2 of thymol, ratio A to B 1 to 0.5) [weight %] | MBC (minimum biocidal concentration) [2] [% w/v] | MBC of p-menthene alcohol ([2]; value used to calculate FBC, for piperitols a lower boundary) | 15 second bactericidal efficacy in combination with thymol (in words) ([3]; in combination with thymol at concentrations lower than their MBC, same surfactant formulation, all 4 or 6 replicates) | Ca (end-point of thymol in the mixture) ([1]; with Cb 0.025 of 2-(4-methylcyclohex-3-enyl)-propan-1-ol, ratio A to B 1 to 0.13) [weight %] | Ca (end-point of thymol in the mixture) ([1]; with Cb 0.05, ratio A to B 1 to 0.25) [weight %] | Ca (end-point of thymol in the mixture) ([1]; with Cb 0.075, ratio A to B 1 to 0.38) [weight %] | Ca (end-point of thymol in the mixture) ([1]; with Cb 0.1, ratio A to B 1 to 0.5) [weight %] | Ca (end-point of thymol in the mixture) ([1]; with Cb 0.2, ratio A to B 1 to 2.5) [weight %] | thymol concentration required for complete bacterial kill in combination ([2]; in combination with […](w/v) of 2-(4-methylcyclohex-3-enyl)-propan-1-ol, 4-fold reduction) [%] | MBC of thymol ([2]; value used to calculate FBC) | MBC (minimum biocidal concentration) ([3]; in 2.85% sodium cocoyl glycinate + 1.85% sodium lauroamphoacetate solution at pH 10) [% w/v]
CC1=CCC(C(C)CO)CC1 (stereo not drawn) [2-(4-methylcyclohex-3-enyl)-propan-1-ol, 2-(4-methylcyclohex-3-enyl)propan-1-ol] | 0.3 | 1.00 | 0.2 | 0.025 | 0.05 | 0.075 | 0.1 | 0.15 | 0.15 % (w/v) | complete kill |  |  |  |  |  |  |  | 
CC1=CCC(C(C)(C)O)CC1 (stereo not drawn) [alpha-terpineol, reference compound] |  |  |  |  |  |  |  | 0.4 |  |  |  |  |  |  |  |  |  | 
Cc1ccc(C(C)C)c(O)c1 [thymol, 2-isopropyl-5-methylphenol, reference compound] | 0.3 | 1.00 |  |  |  |  |  |  |  |  | 0.2 | 0.2 | 0.2 | 0.2 | 0.08 | 0.0125 | 0.025 % (w/v) | >0.2
